Where a SMILES comes first, the peptide text is derived from it. Where no end group is shown, it is not given here. [ ]: non-standard residue; d: D form. Aib = CC(C)(N)C(=O)O
Key:
[1] = CD spectroscopy of cell-penetrating peptides (helicity); conditions: for helicity ([θ]222/[θ]208): CD spectra; for secondary structure / helix stabilization by CD: 10 mM potassium phosphate, pH 7.4, 20° C.
Protocol: The concentration of peptides/proteins was 5-20 μM in general. Spectra were obtained using a Jasco J-1500 CD spectrometer (JASCO, Japan) or a Chirascan CD spectrometer (Applied Photophysics, UK). Scanning was carried out using a cuvette with a path length of 1 mm. MRE (mean residue ellipticity) was calculated per amino acid residue.
The cell-penetrating peptides (CPP1 TO 13 and CPP11d) were dissolved respectively in 10 mM potassium phosphate. The analysis was performed under the condition of pH 7.4 and 20° C.

BALB/c nude mice = assay: In-vivo fluorescence imaging (IVIS) of living mice, targeting; conditions: FAM-labeled, IV 5 mg/kg, 4 hours; for bioaccumulation / targeting activity in the body: comparison with existing CPPs; for in-vivo targeting site: 200 μL
Protocol: All animal experimental procedures including sample administration and euthanasia were performed in accordance with the strict guidelines of the Yonsei University Health System Institutional Animal Care and Use Committee. Female 7-week BALB/c nude mice were purchased from Orient Bio Company (Korea). Fluorescence-labeled peptide (sample) (10 mg/kg) was injected via the lateral tail vein of the mice. Fluorescence images were acquired at different times (0, 4, 8 and 12 hours) using an in-vivo imaging system (IVIS; PerkinElmer, USA) and the images were analyzed with the Living Image software (PerkinElmer).
Female 7-week-old BALB/c nude mice were injected IV (intravenously) with the cell-penetrating peptide prepared in Example 10 (CPP10) at 10 mg/kg or 1 mg/kg via the lateral tail vein and imaged using IVIS (in-vivo imaging system) (PerkinElmer, USA) 4 hours later. The images were analyzed with the Living Image software (PerkinElmer). The mice were analyzed from the top, bottom (belly) and side positions (FIG. 44A). Then, after administering the same volume of the cell-penetrating peptide prepared in Example 10 (CPP10) at 10 mg/kg via IV (intravenous) or IP (intraperitoneal) injection, the mice were imaged 4 hours later (FIG. 44B).
Next, female 7-week-old BALB/c nude mice were injected IV (intravenously) with the cell-penetrating peptide of Example 10 (CPP10), the cell-penetrating peptide of Example 11 (CPP11) or the cell-penetrating peptide of Example 14 (CPP11d) at 10 mg/kg via the lateral tail vein, and they were imaged 30 minutes and 6 hours later using IVIS (in-vivo imaging system) (PerkinElmer, USA). The images were analyzed with the Living Image software (PerkinElmer) (FIG. 44C). In FIGS. 44A and 44B, the cell-penetrating peptides were labeled with TAMRA (5 (6)-carboxytetramethylrhodamine). In FIG. 44C, the cell-penetrating peptides were labeled with FAM.
The images were analyzed with the Living Image software (PerkinElmer) (FIGS. 50 and 51).
The cell-penetrating peptide prepared in Example 11 (CPP11) was also administered at the same concentration and then analyzed by IVIS 1 hour later (FIG. 51). The cell-penetrating peptide was used after labeling with FAM.
4 hours later, the mice were imaged using IVIS (in-vivo imaging system) (PerkinElmer, USA) and the images were analyzed with the Living Image software (PerkinElmer) (FIG. 53).
The cell-penetrating peptide prepared in Example 11 (CPP11) was also administered at the same concentration and then analyzed by IVIS 1 hour later (FIG. 53). The cell-penetrating peptide was used after labeling with FAM.
Female 7-week-old BALB/c nude mice were injected IV (intravenously) with 200 μL of the cell-penetrating peptide of Example 11 (CPP11) or the existing cell-penetrating peptides (Rev ARM, Tat, penetratin and R8) at 5 mg/kg via the lateral tail vein. 4 hours later, the mice were imaged using IVIS (in-vivo imaging system) (PerkinElmer, USA) and the images were analyzed with the Living Image software (PerkinElmer) (FIGS. 54 and 55). The cell-penetrating peptides were used after labeling with FAM.

For “UAUNRARQUAUNRARQUAUNRARQUAUNRARQUAU ([Aib]A[Aib]NRARQ[Aib]A[Aib]NRARQ[Aib]A[Aib]NRARQ[Aib]A[Aib]NRARQ[Aib]A[Aib]-NH2) [CPP17]”, the “helicity ([θ]222/[θ]208)” value [1] was 0.78.
In the case of “UAUQRARNUAUQRARNUAUQRARNUAUQRARNUAU ([Aib]A[Aib]QRARN[Aib]A[Aib]QRARN[Aib]A[Aib]QRARN[Aib]A[Aib]QRARN[Aib]A[Aib]-NH2; not fully specified) [CPP14]”, the “helicity ([θ]222/[θ]208)” value [1] was 0.81.
With “UAUNRRAQUAUNRRAQUAUNRRAQUAUNRRAQUAU ([Aib]A[Aib]NRRAQ[Aib]A[Aib]NRRAQ[Aib]A[Aib]NRRAQ[Aib]A[Aib]NRRAQ[Aib]A[Aib]-NH2) [CPP16]” the “helicity ([θ]222/[θ]208)” value [1] was 0.66.
With `N=C(N)NCCC[C@H](NC(=O)[C@H](CCCNC(=N)N)NC(=O)[C@H](CCCNC(=N)N)NC(=O)[C@H](CCC(N)=O)NC(=O)[C@H](CCCNC(=N)N)NC(=O)[C@H](CCCNC(=N)N)NC(=O)[C@H](CCCCN)NC(=O)[C@H](CCCCN)NC(=O)[C@H](CCCNC(=N)N)NC(=O)CNC(=O)[C@@H](N)Cc1ccc(O)cc1)C(N)=O` [Tat, Tyr-Gly-Arg-Lys-Lys-Arg-Arg-Gln-Arg-Arg-Arg, reference compound] the bioaccumulation (BALB/c nude mice) was “did not show significant bioaccumulation” and the “targeting activity in the body” value (BALB/c nude mice) was “did not show targeting activity for specific sites in the body”.
With “UAUQARRNUAUQARRNUAUQARRNUAUQARRNUAUQARRNUAU ([Aib]A[Aib]QARRN[Aib]A[Aib]QARRN[Aib]A[Aib]QARRN[Aib]A[Aib]QARRN[Aib]A[Aib]QARRN[Aib]A[Aib]; not fully specified) [CPP13]” the “secondary structure / helix stabilization by CD” value [1] was “not further increased”.
With RRRRRRRR [R8, reference compound] the bioaccumulation (BALB/c nude mice) was “did not show significant bioaccumulation” and the “targeting activity in the body” value (BALB/c nude mice) was “did not show targeting activity for specific sites in the body”.
In the case of “TRQARRNRRRRWRERQR [Rev ARM, reference compound]”, the bioaccumulation (BALB/c nude mice) was “did not show significant bioaccumulation” and the “targeting activity in the body” value (BALB/c nude mice) was “did not show targeting activity for specific sites in the body”.
With “UAUQRRANUAUQRRANUAUQRRANUAUQRRANUAU ([Aib]A[Aib]QRRAN[Aib]A[Aib]QRRAN[Aib]A[Aib]QRRAN[Aib]A[Aib]QRRAN[Aib]A[Aib]-NH2; not fully specified) [CPP15]” the “helicity ([θ]222/[θ]208)” value [1] was 0.66.
In the case of `C[C@H](NC(=O)[C@H](CCC(N)=O)NC(=O)C(C)(C)NC(=O)CNC(=O)C(C)(C)NC(=O)[C@H](CC(N)=O)NC(=O)[C@H](CCCNC(=N)N)NC(=O)[C@H](CCCNC(=N)N)NC(=O)[C@H](C)NC(=O)[C@H](CCC(N)=O)NC(=O)C(C)(C)NC(=O)CNC(=O)C(C)(C)NC(=O)[C@H](CC(N)=O)NC(=O)[C@H](CCCNC(=N)N)NC(=O)[C@H](CCCNC(=N)N)NC(=O)[C@H](C)NC(=O)[C@H](CCC(N)=O)NC(=O)C(C)(C)NC(=O)[C@H](C)NC(=O)C(C)(C)N)C(=O)N[C@@H](CCCNC(=N)N)C(=O)N[C@@H](CCCNC(=N)N)C(=O)N[C@@H](CC(N)=O)C(=O)NC(C)(C)C(=O)NCC(=O)NC(C)(C)C(=O)N[C@@H](CCC(N)=O)C(=O)N[C@@H](C)C(=O)N[C@@H](CCCNC(=N)N)C(=O)N[C@@H](CCCNC(=N)N)C(=O)N[C@@H](CC(N)=O)C(=O)NC(C)(C)C(=O)N[C@@H](C)C(=O)NC(C)(C)C(N)=O` [CPP21] (HELM PEPTIDE1{[Aib].A.[Aib].Q.A.R.R.N.[Aib].G.[Aib].Q.A.R.R.N.[Aib].G.[Aib].Q.A.R.R.N.[Aib].G.[Aib].Q.A.R.R.N.[Aib].A.[Aib].[am]}$$$$V2.0; N-terminus assumed), the “helicity ([θ]222/[θ]208)” value ([1]; listed as Example 22) was 0.500 and the in-vivo targeting site (BALB/c nude mice) was “target the ear”.
For “AUAUARQARRNRQARRNRQARRNAUAUA (A[Aib]A[Aib]ARQARRNRQARRNRQARRNA[Aib]A[Aib]A; not fully specified (C-terminus)) [CPP4]”, the “secondary structure / helix stabilization by CD” value [1] was “helical structure was somewhat stabilized”.
For QARRNQARRNQARRNQARRN [CPP6], the “secondary structure / helix stabilization by CD” value [1] was “mostly in random coil state”.
For `C[C@H](NC(=O)[C@H](CCC(N)=O)NC(=O)C(C)(C)NC(=O)CNC(=O)C(C)(C)NC(=O)[C@H](CC(N)=O)NC(=O)[C@H](CCCNC(=N)N)NC(=O)[C@H](CCCNC(=N)N)NC(=O)[C@H](C)NC(=O)[C@H](CCC(N)=O)NC(=O)C(C)(C)NC(=O)[C@H](C)NC(=O)C(C)(C)NC(=O)[C@H](CC(N)=O)NC(=O)[C@H](CCCNC(=N)N)NC(=O)[C@H](CCCNC(=N)N)NC(=O)[C@H](C)NC(=O)[C@H](CCC(N)=O)NC(=O)C(C)(C)NC(=O)[C@H](C)NC(=O)C(C)(C)NC(=O)[C@H](CC(N)=O)NC(=O)[C@H](CCCNC(=N)N)NC(=O)[C@H](CCCNC(=N)N)NC(=O)[C@H](C)NC(=O)[C@H](CCC(N)=O)NC(=O)C(C)(C)NC(=O)[C@H](C)NC(=O)C(C)(C)N)C(=O)N[C@@H](CCCNC(=N)N)C(=O)N[C@@H](CCCNC(=N)N)C(=O)N[C@@H](CC(N)=O)C(=O)NC(C)(C)C(=O)N[C@@H](C)C(=O)NC(C)(C)C(N)=O` [CPP19] (HELM PEPTIDE1{[Aib].A.[Aib].Q.A.R.R.N.[Aib].A.[Aib].Q.A.R.R.N.[Aib].A.[Aib].Q.A.R.R.N.[Aib].G.[Aib].Q.A.R.R.N.[Aib].A.[Aib].[am]}$$$$V2.0; N-terminus assumed), the “helicity ([θ]222/[θ]208)” value [1] was no less than 0.7, the “helicity ([θ]222/[θ]208)” value ([1]; listed as Example 20) was 0.706 and the in-vivo targeting site (BALB/c nude mice) was “target the ear”.
With “UAURQARRNUAURQARRNUAURQARRNUAURQARRNUAU ([Aib]A[Aib]RQARRN[Aib]A[Aib]RQARRN[Aib]A[Aib]RQARRN[Aib]A[Aib]RQARRN[Aib]A[Aib]; not fully specified (C-terminus)) [CPP5]” the “secondary structure / helix stabilization by CD” value [1] was “helical structure was somewhat stabilized”.
In the case of “UAUNARRQUAUNARRQUAUNARRQUAUNARRQUAU ([Aib]A[Aib]NARRQ[Aib]A[Aib]NARRQ[Aib]A[Aib]NARRQ[Aib]A[Aib]NARRQ[Aib]A[Aib]-NH2) [CPP18]”, the “helicity ([θ]222/[θ]208)” value [1] was 0.72.
With QARRNQARRNQARRNQARRNQARRN [CPP7] the “secondary structure / helix stabilization by CD” value [1] was “mostly in random coil state”.
For `C[C@H](NC(=O)[C@H](CCC(N)=O)NC(=O)C(C)(C)NC(=O)CNC(=O)C(C)(C)NC(=O)[C@H](CC(N)=O)NC(=O)[C@H](CCCNC(=N)N)NC(=O)[C@H](CCCNC(=N)N)NC(=O)[C@H](C)NC(=O)[C@H](CCC(N)=O)NC(=O)C(C)(C)NC(=O)[C@H](C)NC(=O)C(C)(C)NC(=O)[C@H](CC(N)=O)NC(=O)[C@H](CCCNC(=N)N)NC(=O)[C@H](CCCNC(=N)N)NC(=O)[C@H](C)NC(=O)[C@H](CCC(N)=O)NC(=O)C(C)(C)NC(=O)[C@H](C)NC(=O)C(C)(C)N)C(=O)N[C@@H](CCCNC(=N)N)C(=O)N[C@@H](CCCNC(=N)N)C(=O)N[C@@H](CC(N)=O)C(=O)NC(C)(C)C(=O)NCC(=O)NC(C)(C)C(=O)N[C@@H](CCC(N)=O)C(=O)N[C@@H](C)C(=O)N[C@@H](CCCNC(=N)N)C(=O)N[C@@H](CCCNC(=N)N)C(=O)N[C@@H](CC(N)=O)C(=O)NC(C)(C)C(=O)N[C@@H](C)C(=O)NC(C)(C)C(N)=O` [CPP20] (HELM PEPTIDE1{[Aib].A.[Aib].Q.A.R.R.N.[Aib].A.[Aib].Q.A.R.R.N.[Aib].G.[Aib].Q.A.R.R.N.[Aib].G.[Aib].Q.A.R.R.N.[Aib].A.[Aib].[am]}$$$$V2.0; N-terminus assumed), the “helicity ([θ]222/[θ]208)” value ([1]; listed as Example 21) was 0.565, the in-vivo targeting site (BALB/c nude mice) was “target the ear” and the “accumulation efficiency in the ear” value (BALB/c nude mice; among CPP19 to 21) was “much superior accumulation efficiency in the ear”.

Source: patent US20240368230A1, “CELL-PENETRATING PEPTIDES COMPRISING MULTIPLE 5-MER ALPHA-HELIX FRAGMENTS AND USES THEREOF” (ArtProBio Co., Ltd., priority 2023, published 2024)
